Data set [1] has as its target somatostatin sst3 receptors (Homo sapiens, UniProt P32745). The experiment in a line: radioligand binding, somatostatin receptor expressing cell cultures. Particulars: sst3 versus other somatostatin receptors. The text has this:
(§1) In particular the agents of the invention show high affinity to somatostatin receptors. More particularly they are selective antagonists at somatostatin sst3 receptors, previously called SSTR-3 receptors (see Hoyer et al., TiPS, 1995, 16; 86-88), as determined in radioligand binding and second messenger studies [see for example K. Kaupmann et al., FEBS Letts. 1993, 331:53-59.

The target of a further data set is human sst3 receptor (Homo sapiens, UniProt P32745). The experiment in a line: radioligand binding, human sst3 receptor. Particulars: read-out: pKd, human receptor (converted).
From the text: as §1
(§2) The preferred agent of the invention for the above-mentioned indications is the (R)-1,1-bis-ethoxymethyl-3-(4-phenyl-1H-imidazol-2-yl)-2,3,4,9-tetrahydro-1H-β-carboline, in free base or acid addition salt form. […] In the forced swim test (Porsolt), the immobility time is shortened by 30-45% on subchronic administration of 12.5-25 mg/kg p.o.

In a further data set the target is mouse sst3 receptor (Mus musculus, UniProt P30935). The experiment in a line: radioligand binding, mouse sst3 receptor. Particulars: read-out: pKd, mouse receptor (converted).
From the text: as §1, §2

The next data set relates to rats. The experiment in a line: social exploration test / social contact assay. Particulars: rat. It is filed as in vivo. As for the experimental part: In the social exploration test at doses of about 0.01 to 10 mg/kg p.o., the agents of the invention increase social contact time of rats similarly to classical anxiolytics such as benzodiazepines e.g. chlordiazepoxide or NK1 antagonists (Vassout A, Veenstra S, Hauser K, Ofner S, Brugger F, Schilling W, Gentsch C, Regulatory Peptides. 2000; 96, 7-16).
as §2

The next data set can be described thus: passive avoidance test. The class given is in vivo. Particulars: 0.1, 1 or 10 mg/kg p.o.
In a further data set the test system is mice. The experiment in a line: social recognition test. It is filed as in vivo. Particulars: doses between 0.03 and 3 mg/kg p.o. How it is done: The agents of the invention at 0.03-3 mg/kg p.o. enhance leaming/mlmory in mice as measured in the social recognition test similar to oxiracetam or GABAB blockers (Thor D. H. and Holloway W. R. J. Comp. Physiol. Psychol. 1982; 96: 1000-1006. Mondadori C. et al., Behavioural Brain Research 1996, 77: 227-229).
as §2

The test system of the next data set is rat. Kind of data set: forced swim test (Porsolt), rat. Particulars: subchronic administration of 12.5-25 mg/kg p.o. The class given is in vivo. How it is done: The agents of the invention show antidepressant-like effects in the rat, similar to desipramine or fluoxetine when given subchronically (10-30 mg/kg, p.o.) in the forced swim test. (Porsolt, R. D. et al. Nature. 1977: 266, 730-732) and also produce antidepressant-like effects in the mouse, similar to fluoxetine (Porsolt, R. D. et al. Nature 1977: 266, 730-732). Finally, these agents, when given once per day for 14 days, (0.3-30 mg/kg p.o.), reverse both the characteristic hyper-reactivity of bulbectomised rats when first placed in a novel and stressful environment and the total activity, similar to imipramine and desipramine. (Song C and Leonard BE. Hum. Psychopharmacol 1994; 9: 135-146).
as §2

Chain of mouse sst3 receptor (P30935 whole entry): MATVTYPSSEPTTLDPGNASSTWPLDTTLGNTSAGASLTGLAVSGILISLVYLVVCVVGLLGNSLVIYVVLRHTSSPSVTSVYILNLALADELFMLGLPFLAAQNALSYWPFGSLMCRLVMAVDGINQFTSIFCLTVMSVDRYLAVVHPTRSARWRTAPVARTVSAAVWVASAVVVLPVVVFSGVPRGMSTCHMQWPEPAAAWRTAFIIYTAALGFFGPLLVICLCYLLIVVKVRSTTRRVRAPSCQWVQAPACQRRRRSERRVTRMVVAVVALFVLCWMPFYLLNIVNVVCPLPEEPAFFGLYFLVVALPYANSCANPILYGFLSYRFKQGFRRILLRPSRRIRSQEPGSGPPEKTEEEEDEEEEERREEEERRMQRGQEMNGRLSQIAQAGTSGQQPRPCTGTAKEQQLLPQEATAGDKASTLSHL
Chain of human sst3 receptor (P32745 whole entry): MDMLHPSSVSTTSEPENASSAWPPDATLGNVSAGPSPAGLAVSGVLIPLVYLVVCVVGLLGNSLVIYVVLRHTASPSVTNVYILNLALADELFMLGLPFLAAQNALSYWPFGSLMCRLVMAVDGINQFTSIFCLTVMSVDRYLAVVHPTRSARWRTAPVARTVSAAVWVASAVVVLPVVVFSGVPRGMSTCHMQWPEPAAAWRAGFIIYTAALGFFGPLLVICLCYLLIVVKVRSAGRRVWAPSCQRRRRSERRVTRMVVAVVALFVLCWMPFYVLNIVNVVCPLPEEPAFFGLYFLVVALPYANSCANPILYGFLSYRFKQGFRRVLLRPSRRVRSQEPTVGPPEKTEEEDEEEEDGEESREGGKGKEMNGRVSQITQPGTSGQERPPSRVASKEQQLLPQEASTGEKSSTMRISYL
Chain of somatostatin sst3 receptors (P32745 whole entry): as above

In turn, `CCCCC1(CCCC)N[C@@H](c2nc(-c3ccncc3)c[nH]2)Cc2c1[nH]c1ccccc21` [Example 1, (R)-1,1-Dibutyl-3-(4-pyridin-4-yl-1H-imidazol-2-yl)-2,3,4,9-tetrahydro-1H-β-carboline] showed a melting point of 200 to 205 °C.

Turning to `CCOCC1(COCC)N[C@@H](c2nc(-c3ccccc3)c[nH]2)Cc2c1[nH]c1ccccc21` [Example 10, (R)-1,1-bis-ethoxymethyl-3-(4-phenyl-1H-imidazol-2-yl)-2,3,4,9-tetrahydro-1H-β-carboline], in data set [1], the “selectivity over other somatostatin receptors” value is on record as “more than 400 fold”. For the same molecule, the results for the Kd on human sst3 receptor and at mouse sst3 receptor were 2.04 nM and 5.01 nM, respectively. Moreover, the “dose of maximal amplitude, social contact assay” value with rats is 0.3-3 mg/kg p.o. The “duration of social contacts of the intruder towards the resident” value with rats (0.01-10 mg/kg p.o.) is on record as “increases dose dependently the duration of social contacts”. In addition, the “impairment of memory formation in passive avoidance test” value in the data set “passive avoidance test” is given as “no impairment of memory formation”. The “social recognition of a familiar partner” value in the data set on mice was “significant increase of social recognition”. The “shortening of immobility time” value in the data set with rat is given as 30-45%.

What is called melting point is the temperature, or range, at which the solid turns liquid.

Source of the values: patent publication US6861430B2, “β-carboline derivatives and its pharmaceutical use against depression and anxiety” (Novartis AG, priority 2001, dated 2005).
